Assays:
Format in all cases: in vivo
Design in all cases: key: 0 is no effect; 10 is complete control
[1] = test system: bedstraw (Galium aparine); test: Test B pre-/postemergence
Summary of the method: (§1)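 Compounds in a surfactant-containing, non-phytotoxic solvent blend are applied to freshly planted seed (preemergence) and, concurrently, to seedlings of 2 to 18 cm at 1–4 leaves (postemergence). Plants stay in the greenhouse twelve to sixteen days and are then scored visually from 0 (no effect) to 10 (complete control).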

corn (Zea mays) = test: Test B pre-/postemergence
Summary of the method: as §1

[2] = test system: crabgrass (Digitaria sanguinalis); test: Test B pre-/postemergence
Summary of the method: as §1

[3] = test system: giant foxtail (Setaria faberii); test: Test B pre-/postemergence
Summary of the method: as §1

[4] = test system: purple nutsedge (Cyperus rotundus); test: Test B pre-/postemergence
Summary of the method: as §1

rape (Brassica napus) = test: Test B pre-/postemergence
Summary of the method: as §1

soybean (Glycine max) = test: Test B pre-/postemergence
Summary of the method: as §1

[5] = test system: sugar beet (Beta vulgaris); test: Test B pre-/postemergence
Summary of the method: as §1

[6] = test system: velvetleaf (Abutilon theophrasti); test: Test B pre-/postemergence
Summary of the method: as §1

[7] = test system: wheat (Triticum aestivum); test: Test B pre-/postemergence
Summary of the method: as §1

wild oat (Avena fatua) = test: Test B pre-/postemergence
Summary of the method: as §1

[8] = test system: bamyardgrass (Echinochloa crus-galli); test: Test B flood test
Summary of the method: (§2)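 Read-out is a visual response score from 0 (no effect) to 10 (complete control), assigned by comparison with untreated controls. Treatment was applied at the 2-leaf stage, and plants stayed in the greenhouse for twelve to sixteen days before scoring.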

[9] = test system: duck salad (Heteranthera limosa); test: Test B flood test
Summary of the method: as §2

rice (Oryza sativa) = test: Test B flood test
Summary of the method: as §2

[10] = test system: smallflower flatsedge (Cyperus difformis); test: Test B flood test
Summary of the method: as §2

[11] = Rate 62 g/ha, Postemergence (flood test)
[12] = Rate 125 g/ha, Postemergence, flood test
[13] = Rate 250 g/ha, Postemergence (flood test species)
[14] = Rate 500 g/ha, Postemergence (flood test species)

Cc1cnc(-c2ccc(C(F)(F)F)cc2)nc1Cn1cnc(C(F)(F)F)c1 [Compound 10]
Plant response rating, Bedstraw ([1]; Rate 62 g/ha, Postemergence): 8 | Bedstraw plant response rating ([1]; Rate 62 g/ha, Preemergence): 3 | Plant response rating, Bedstraw ([1]; Rate 125 g/ha, Postemergence): 9 | Bedstraw plant response rating ([1]; Rate 125 g/ha, Preemergence): 7 | Plant response rating, Bedstraw ([1]; Rate 250 g/ha, Postemergence): 10 | Plant response rating, Bedstraw ([1]; Rate 250 g/ha, Preemergence): 7 | Plant response rating, Bedstraw ([1]; Rate 500 g/ha, Postemergence): 10 | Plant response rating, Bedstraw ([1]; Rate 500 g/ha, Preemergence): 10 | Plant response rating, Corn (corn (Zea mays); Rate 62 g/ha, Postemergence): 2 | Corn plant response rating (corn (Zea mays); Rate 62 g/ha, Preemergence): 0 | Plant response rating, Corn (corn (Zea mays); Rate 125 g/ha, Postemergence): 2 | Corn plant response rating (corn (Zea mays); Rate 125 g/ha, Preemergence): 0 | Plant response rating, Corn (corn (Zea mays); Rate 250 g/ha, Postemergence): 3 | Plant response rating, Corn (corn (Zea mays); Rate 250 g/ha, Preemergence): 0 | Plant response rating, Corn (corn (Zea mays); Rate 500 g/ha, Postemergence): 3 | Plant response rating, Corn (corn (Zea mays); Rate 500 g/ha, Preemergence): 1 | Plant response rating, Crabgrass ([2]; Rate 62 g/ha, Postemergence): 2 | Crabgrass plant response rating ([2]; Rate 62 g/ha, Preemergence): 5 | Plant response rating, Crabgrass ([2]; Rate 125 g/ha, Postemergence): 2 | Crabgrass plant response rating ([2]; Rate 125 g/ha, Preemergence): 7 | Plant response rating, Crabgrass ([2]; Rate 250 g/ha, Postemergence): 4 | Plant response rating, Crabgrass ([2]; Rate 250 g/ha, Preemergence): 9 | Plant response rating, Crabgrass ([2]; Rate 500 g/ha, Postemergence): 6 | Plant response rating, Crabgrass ([2]; Rate 500 g/ha, Preemergence): 9 | Plant response rating, Giant foxtail ([3]; Rate 62 g/ha, Postemergence): 2 | Giant foxtail plant response rating ([3]; Rate 62 g/ha, Preemergence): 3 | Plant response rating, Giant foxtail ([3]; Rate 125 g/ha, Postemergence): 2 | Giant foxtail plant response rating ([3]; Rate 125 g/ha, Preemergence): 7 | Plant response rating, Giant foxtail ([3]; Rate 250 g/ha, Postemergence): 4 | Plant response rating, Giant foxtail ([3]; Rate 250 g/ha, Preemergence): 8 | Plant response rating, Giant foxtail ([3]; Rate 500 g/ha, Postemergence): 5 | Plant response rating, Giant foxtail ([3]; Rate 500 g/ha, Preemergence): 9 | Plant response rating, Nutsedge ([4]; Rate 62 g/ha, Postemergence): 0 | Nutsedge plant response rating ([4]; Rate 62 g/ha, Preemergence): 0 | Plant response rating, Nutsedge ([4]; Rate 125 g/ha, Postemergence): 0 | Nutsedge plant response rating ([4]; Rate 125 g/ha, Preemergence): 0 | Plant response rating, Nutsedge ([4]; Rate 250 g/ha, Postemergence): 0 | Plant response rating, Nutsedge ([4]; Rate 250 g/ha, Preemergence): 0 | Plant response rating, Nutsedge ([4]; Rate 500 g/ha, Postemergence): 3 | Plant response rating, Nutsedge ([4]; Rate 500 g/ha, Preemergence): 0 | Plant response rating, Rape (rape (Brassica napus); Rate 62 g/ha, Postemergence): 8 | Rape plant response rating (rape (Brassica napus); Rate 62 g/ha, Preemergence): 3 | Plant response rating, Rape (rape (Brassica napus); Rate 125 g/ha, Postemergence): 9 | Rape plant response rating (rape (Brassica napus); Rate 125 g/ha, Preemergence): 4 | Plant response rating, Rape (rape (Brassica napus); Rate 250 g/ha, Postemergence): 9 | Plant response rating, Rape (rape (Brassica napus); Rate 250 g/ha, Preemergence): 4 | Plant response rating, Rape (rape (Brassica napus); Rate 500 g/ha, Postemergence): 9 | Plant response rating, Rape (rape (Brassica napus); Rate 500 g/ha, Preemergence): 7 | Plant response rating, Soybean (soybean (Glycine max); Rate 62 g/ha, Postemergence): 6 | Soybean plant response rating (soybean (Glycine max); Rate 62 g/ha, Preemergence): 0 | Plant response rating, Soybean (soybean (Glycine max); Rate 125 g/ha, Postemergence): 6 | Soybean plant response rating (soybean (Glycine max); Rate 125 g/ha, Preemergence): 0 | Plant response rating, Soybean (soybean (Glycine max); Rate 250 g/ha, Postemergence): 8 | Plant response rating, Soybean (soybean (Glycine max); Rate 250 g/ha, Preemergence): 1 | Plant response rating, Soybean (soybean (Glycine max); Rate 500 g/ha, Postemergence): 8 | Plant response rating, Soybean (soybean (Glycine max); Rate 500 g/ha, Preemergence): 1 | Plant response rating, Sugarbeets ([5]; Rate 62 g/ha, Postemergence): 8 | Sugarbeets plant response rating ([5]; Rate 62 g/ha, Preemergence): 6 | Plant response rating, Sugarbeets ([5]; Rate 125 g/ha, Postemergence): 8 | Plant response rating, Sugarbeets ([5]; Rate 250 g/ha, Postemergence): 9 | Plant response rating, Sugarbeets ([5]; Rate 250 g/ha, Preemergence): 6 | Plant response rating, Sugarbeets ([5]; Rate 500 g/ha, Postemergence): 9 | Plant response rating, Sugarbeets ([5]; Rate 500 g/ha, Preemergence): 10 | Plant response rating, Velvetleaf ([6]; Rate 62 g/ha, Postemergence): 6 | Velvetleaf plant response rating ([6]; Rate 62 g/ha, Preemergence): 5 | Plant response rating, Velvetleaf ([6]; Rate 125 g/ha, Postemergence): 7 | Velvetleaf plant response rating ([6]; Rate 125 g/ha, Preemergence): 7 | Plant response rating, Velvetleaf ([6]; Rate 250 g/ha, Postemergence): 8 | Plant response rating, Velvetleaf ([6]; Rate 250 g/ha, Preemergence): 8 | Plant response rating, Velvetleaf ([6]; Rate 500 g/ha, Postemergence): 9 | Plant response rating, Velvetleaf ([6]; Rate 500 g/ha, Preemergence): 8 | Plant response rating, Wheat ([7]; Rate 62 g/ha, Postemergence): 2 | Wheat plant response rating ([7]; Rate 62 g/ha, Preemergence): 0 | Plant response rating, Wheat ([7]; Rate 125 g/ha, Postemergence): 3 | Wheat plant response rating ([7]; Rate 125 g/ha, Preemergence): 0 | Plant response rating, Wheat ([7]; Rate 250 g/ha, Postemergence): 3 | Plant response rating, Wheat ([7]; Rate 250 g/ha, Preemergence): 0 | Plant response rating, Wheat ([7]; Rate 500 g/ha, Postemergence): 3 | Plant response rating, Wheat ([7]; Rate 500 g/ha, Preemergence): 1 | Plant response rating, Wild oats (wild oat (Avena fatua); Rate 62 g/ha, Postemergence): 2 | Wild oats plant response rating (wild oat (Avena fatua); Rate 62 g/ha, Preemergence): 0 | Plant response rating, Wild oats (wild oat (Avena fatua); Rate 125 g/ha, Postemergence): 2 | Wild oats plant response rating (wild oat (Avena fatua); Rate 125 g/ha, Preemergence): 1 | Plant response rating, Wild oats (wild oat (Avena fatua); Rate 250 g/ha, Postemergence): 2 | Plant response rating, Wild oats (wild oat (Avena fatua); Rate 250 g/ha, Preemergence): 2 | Plant response rating, Wild oats (wild oat (Avena fatua); Rate 500 g/ha, Postemergence): 3 | Plant response rating, Wild oats (wild oat (Avena fatua); Rate 500 g/ha, Preemergence): 4 | Plant response rating, Barnyardgrass [8, 11]: 1 | Plant response rating, Barnyardgrass [8, 12]: 2 | Plant response rating, Barnyardgrass [8, 13]: 3 | Plant response rating, Barnyardgrass [8, 14]: 4 | Plant response rating, Ducksalad [9, 11]: 1 | Plant response rating, Ducksalad [9, 12]: 1 | Plant response rating, Ducksalad [9, 13]: 3 | Plant response rating, Ducksalad [9, 14]: 5 | Plant response rating, Rice (rice (Oryza sativa); [11]): 0 | Plant response rating, Rice (rice (Oryza sativa); [12]): 2 | Plant response rating, Rice (rice (Oryza sativa); [13]): 2 | Plant response rating, Rice (rice (Oryza sativa); [14]): 3 | Plant response rating, S. Flatsedge [10, 11]: 6 | Plant response rating, S. Flatsedge [10, 12]: 9 | Plant response rating, S. Flatsedge [10, 13]: 9 | Plant response rating, S. Flatsedge [10, 14]: 9

Source: patent US6525001B1, “Substituted pyrimidine and pyridine herbicides” (Mid-American Commercialization Corporation, priority 1997, dated 2003)
